# Legend:
# Assay type in all cases: biochemical
# firefly luciferase [1] = target: T1, firefly luciferase (Photinus pyralis, UniProt P08659); experiment: Quaternary ammonium/phosphonium detergent screen, firefly luciferase (Example 5); settings: final conc. 0.10% detergent, Tergitol NP-9 present; for remaining activity at 0.1 %: read-out: Retained Firefly Luciferase Luminescence (%)
# Method: (§1) Each detergent was added at 0.2% to a reagent solution containing 50 mM Tricine pH 8.3, 3.5 mM MgSO4, 1 mM CDTA, 30 mM thiourea and 0.5% Tergitol NP-9. This solution or one not containing a detergent inhibitor was used to resuspend the Bright-Glo™ luciferin substrate (Promega).
# (§2) The luciferase reactions were initiated by adding 100 μl of the firefly luciferase or Renilla luciferase enzyme solutions to 100 μl of reagent solution. The reactions were performed as described above. […] The detergent concentrations listed refer to the final concentration in the reaction.
# Renilla luciferase [2] = target: T2, Renilla luciferase (Renilla reniformis, UniProt P27652); experiment: Quaternary ammonium/phosphonium detergent screen, Renilla luciferase (Example 5); settings: final conc. 0.03% detergent; for remaining activity at 0.03 % / Retained Renilla Luciferase Luminescence (%): Tergitol NP-9 present; for remaining activity at 0.03 %: read-out: Retained Renilla Luciferase Luminescence (%)
# T2 sequence (P27652 1-311): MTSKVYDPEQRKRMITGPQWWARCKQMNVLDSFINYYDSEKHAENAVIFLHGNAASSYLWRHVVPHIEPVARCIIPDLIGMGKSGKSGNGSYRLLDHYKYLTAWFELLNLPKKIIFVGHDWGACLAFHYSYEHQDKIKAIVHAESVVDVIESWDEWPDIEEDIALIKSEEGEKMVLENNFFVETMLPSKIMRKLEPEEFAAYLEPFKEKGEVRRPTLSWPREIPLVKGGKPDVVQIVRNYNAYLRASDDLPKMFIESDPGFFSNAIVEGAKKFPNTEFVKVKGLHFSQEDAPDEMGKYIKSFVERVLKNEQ
# firefly luciferase [3] = target: T1, firefly luciferase; experiment: Quaternary ammonium/phosphonium detergent screen, firefly luciferase (Example 5); settings: final conc. 0.03% detergent, Tergitol NP-9 present; for remaining activity at 0.03 %: read-out: Retained Firefly Luciferase Luminescence (%)
# Renilla luciferase [4] = target: T2, Renilla luciferase; experiment: Quaternary ammonium/phosphonium detergent screen, Renilla luciferase (Example 5); settings: final conc. 0.10% detergent; for remaining activity at 0.1 % / Retained Renilla Luciferase Luminescence (%): Tergitol NP-9 present; for remaining activity at 0.1 %: read-out: Retained Renilla Luciferase Luminescence (%)
# Method: as §1, §2
# T1 sequence (P08659 whole entry): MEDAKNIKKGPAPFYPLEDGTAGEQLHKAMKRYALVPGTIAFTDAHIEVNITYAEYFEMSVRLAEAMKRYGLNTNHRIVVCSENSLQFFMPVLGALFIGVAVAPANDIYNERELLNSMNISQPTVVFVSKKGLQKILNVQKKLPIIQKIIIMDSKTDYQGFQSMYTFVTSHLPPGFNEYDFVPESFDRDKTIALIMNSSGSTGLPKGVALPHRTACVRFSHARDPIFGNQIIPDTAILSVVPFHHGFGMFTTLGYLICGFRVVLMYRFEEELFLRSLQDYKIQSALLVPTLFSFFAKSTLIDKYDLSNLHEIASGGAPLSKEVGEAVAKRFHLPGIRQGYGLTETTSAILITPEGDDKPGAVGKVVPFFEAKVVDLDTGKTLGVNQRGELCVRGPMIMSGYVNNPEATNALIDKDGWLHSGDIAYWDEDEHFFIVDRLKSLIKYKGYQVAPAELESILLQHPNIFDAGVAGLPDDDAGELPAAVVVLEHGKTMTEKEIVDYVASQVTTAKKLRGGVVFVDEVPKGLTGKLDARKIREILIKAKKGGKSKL
molecule,measurement,setting,value
CCCCCCCCCCC(C(=O)c1ccc(OC)cc1)[N+](C)(C)C.[Br-] (stereo not drawn) [(1-(4-methoxybenzoyl)-undecyl)-trimethylammonium bromide],remaining activity at 0.1 %,firefly luciferase [1],104%
same,Selectivity Value,Renilla luciferase [2],5.3
same,remaining activity at 0.03 %,Renilla luciferase [2],20%
same,remaining activity at 0.03 %,firefly luciferase [3],106%
same,Selectivity Value,Renilla luciferase [4],52
same,remaining activity at 0.1 %,Renilla luciferase [4],2%
C[N+](C)(C)Cc1ccccc1.[I-] [Bezyltrimethylammonium iodide],Retained Firefly Luciferase Luminescence (%),firefly luciferase [1],62%
same,Selectivity Value,Renilla luciferase [2],0.8
same,Retained Renilla Luciferase Luminescence (%),Renilla luciferase [2],93%
same,Retained Firefly Luciferase Luminescence (%),firefly luciferase [3],76%
same,Selectivity Value,Renilla luciferase [4],0.6
same,Retained Renilla Luciferase Luminescence (%),Renilla luciferase [4],97%
(−)-N-dodecyl-N-methyl ephedrium bromide,Retained Firefly Luciferase Luminescence (%),firefly luciferase [1],102%
same,Selectivity Value,Renilla luciferase [2],7.1
same,Retained Renilla Luciferase Luminescence (%),Renilla luciferase [2],15%
same,Retained Firefly Luciferase Luminescence (%),firefly luciferase [3],106%
same,Selectivity Value,Renilla luciferase [4],102.1
same,Retained Renilla Luciferase Luminescence (%),Renilla luciferase [4],1%
CC=CC[P+](Cc1ccccc1)(c1ccccc1)c1ccccc1.[Br-] [Benzyl-but-2-enyl-diphenyl-phosphonium bromide],remaining activity at 0.1 %,firefly luciferase [1],109%
same,Selectivity Value,Renilla luciferase [2],2.1
same,remaining activity at 0.03 %,Renilla luciferase [2],50%
same,remaining activity at 0.03 %,firefly luciferase [3],106%
same,Selectivity Value,Renilla luciferase [4],7.8
same,remaining activity at 0.1 %,Renilla luciferase [4],14%
CC[P+](CC)(CC)Cc1ccccc1.[Br-] [Benzyltriethylphosphonium bromide],remaining activity at 0.1 %,firefly luciferase [1],102%
same,Selectivity Value,Renilla luciferase [2],1.1
same,remaining activity at 0.03 %,Renilla luciferase [2],88%
same,remaining activity at 0.03 %,firefly luciferase [3],97%
same,Selectivity Value,Renilla luciferase [4],2.0
same,remaining activity at 0.1 %,Renilla luciferase [4],51%
C[N+](C)(Cc1ccccc1)c1ccccc1.[Cl-] [Benzyldimethylphenylammonium chloride],Retained Firefly Luciferase Luminescence (%),firefly luciferase [1],55%
same,Selectivity Value,Renilla luciferase [2],2.2
same,Retained Renilla Luciferase Luminescence (%),Renilla luciferase [2],38%
same,remaining activity at 0.03 %,firefly luciferase [3],82%
same,Selectivity Value,Renilla luciferase [4],4.6
same,Retained Renilla Luciferase Luminescence (%),Renilla luciferase [4],12%
